Legend:
Mus musculus = species: Mus musculus; experiment: (§1) Cytotoxicity against mouse S17 cells assessed as reduction in cell viability after 72 hrs by MTT assay; format: toxicity, cell-based; settings: s17
THP-1 = experiment: Selectivity index, ratio of IC50 for mouse S17 cells to IC50 for human THP1 cells; format: functional
[1] = Cytotoxicity against mouse EL4 cells assessed as reduction in cell viability after 72 hrs by MTT assay; format: functional, cell-based; settings: EL4, 72 h
[2] = Cytotoxicity against human U937 cells assessed as reduction in cell viability after 72 hrs by MTT assay; format: functional, cell-based; settings: U-937, 72 h
EL4 = experiment: Selectivity index, ratio of IC50 for mouse S17 cells to IC50 for mouse EL4 cells; format: functional
[3] = Cytotoxicity against human THP1 cells assessed as reduction in cell viability after 72 hrs by MTT assay; format: functional, cell-based; settings: THP-1, 72 h
U-937 = experiment: Selectivity index, ratio of IC50 for mouse S17 cells to IC50 for human U937 cells; format: functional
[4] = Cytotoxicity against mouse S17 cells assessed as cell viability at 100 uM after 72 hrs by MTT assay relative to control; format: toxicity; settings: read-out: Activity
[5] = as §1; format: toxicity, cell-based; settings: mouse, S17 cells
[6] = Cytotoxicity against human U937 cells assessed as cell viability at 100 uM after 72 hrs by MTT assay relative to control; format: functional; settings: U-937, 72 h, read-out: Activity

SMILES | IC50 (Mus musculus) | Ratio IC50 (THP-1) | IC50 [1] [µM] | IC50 [2] [µM] | Ratio IC50 (EL4) | IC50 [3] [µM] | Ratio IC50 (U-937) | viability at 72 h, 100 µM [4] [%] | IC50 at 72 h [5] [µM] | viability at 100 µM [6] [%]
C/C(=N/NC(=O)OC(C)(C)C)C(c1c[nH]c2ccc(O)cc12)c1c[nH]c2ccc(O)cc12 | Non-Toxic | 3.5 | 15.4 | 157 | 6.49 | 28.6 | <1 | 48.4 | – | –
C/C(=N/NC(=O)OC(C)(C)C)C(c1c[nH]c2ccc(Br)cc12)c1c[nH]c2ccc(Br)cc12 | – | 1.14 | 22.5 | 28.3 | 1.84 | 36.2 | 1.46 | – | 41.3 | –
C/C(=N/NC(=O)OC(C)(C)C)C(c1cn(C)c2ccccc12)c1cn(C)c2ccccc12 | – | – | 9.99 | 14.2 | – | 25.3 | – | – | – | –
O/N=C(/c1ccc(Br)cc1)C(c1c[nH]c2ccc(O)cc12)c1c[nH]c2ccc(O)cc12 | – | 1.41 | 15.6 | 12.8 | 1.4 | 15.5 | 1.71 | – | 21.9 | –
C/C(=N/NS(=O)(=O)c1ccc(C)cc1)C(c1c[nH]c2ccccc12)c1c[nH]c2ccccc12 | – | 1.06 | 18.9 | 22.9 | 1.32 | 23.5 | 1.09 | – | 25 | –
COc1ccc2[nH]cc(C(/C(=N\O)c3ccc(Br)cc3)c3c[nH]c4ccc(OC)cc34)c2c1 | – | <1 | 9.29 | 18.1 | 1.91 | 22.6 | <1 | – | 17.7 | –
C/C(=N/Nc1ccc([N+](=O)[O-])cc1[N+](=O)[O-])C(c1c[nH]c2ccccc12)c1c[nH]c2ccccc12 | – | <1 | 5.45 | 13.3 | 1.45 | 14 | <1 | – | 7.92 | –
COc1cc([C@@H]2c3cc4c(cc3[C@@H](O[C@@H]3O[C@@H]5CO[C@@H](C)O[C@H]5[C@H](O)[C@H]3O)[C@H]3COC(=O)[C@H]23)OCO4)cc(OC)c1O [ETOPOSIDE] | – | – | 4.9 | 1.1 | – | 1.82 | – | – | 10.4 | –
Cc1ccc2[nH]cc(C(/C(=N\O)c3ccc(Br)cc3)c3c[nH]c4ccc(C)cc34)c2c1 | – | 1.81 | 3.23 | 9.79 | 3.56 | 6.34 | 1.17 | – | 11.5 | –
C/C(=N/NC(=O)OC(C)(C)C)C(c1c[nH]c2ccccc12)c1c[nH]c2ccccc12 | – | 1.67 | 15.3 | 25 | 3.27 | 30 | 2 | – | 50 | –
O/N=C(/c1ccc(Br)cc1)C(c1c[nH]c2ccc(Br)cc12)c1c[nH]c2ccc(Br)cc12 | – | – | 7.65 | 18.6 | – | 12.2 | – | – | – | –
C/C(=N/NC(=O)OC(C)(C)C)C(c1cn(Cc2ccccc2)c2ccccc12)c1cn(Cc2ccccc2)c2ccccc12 | – | <1 | 5.56 | – | 1.38 | 38.8 | <1 | – | 7.65 | 66.6

From ChEMBL document CHEMBL3875219, “Hetero-Diels-Alder approach to Bis(indolyl)methanes” (Bioorg Med Chem, 2017)
